{
  "source": "patent US6358999B2",
  "about": "“Use of zinc tranexamate in the treatment of diabetes” (Hamari Chemicals, LTD, priority 2000, dated 2002)",
  "key": {"intestinal α-glucosidase [1]": {"tested_on": "intestinal α-glucosidase", "assay": "Inhibition of intestinal α-glucosidase activity of normal mouse (intestinal homogenate, glucose production)", "format": "biochemical", "conditions": "for Glucose (glucose production from isomaltose): substrate isomaltose; for Glucose (glucose production from isomaltose) / Glucose (glucose production from maltose) / Glucose (glucose production from sucrose): 37° C., 30 minutes; for Glucose (glucose production from maltose): substrate maltose", "experimental": "(§1) Intestinal tract enucleated from a normal mouse was homogenized by the conventional method after removing membrane mucosa. As a substrate, sucrose, starch, maltose or isomaltose was used. The homogenate was incubated with the substrate in the presence of a test compound (Y-4 or zinc chloride) at 37° C. for 30 minutes. The reaction mixture was centrifuged and the glucose concentration in the resulting supernatant was assayed. The glucose assay was conducted calorimetrically by adding a chromogenic reagent (0.47 mol/l of orthotoluidine, 16 mol/l of acetic acid, 10 mmol/l of boric acid) to the supernatant, heating the mixture in a boiling water bath for 8 minutes and measuring the absorbance at 635 nm. α-Glucosidase activity expressed in terms of glucose concentration/mg protein was calculated."}, "intestinal α-glucosidase [2]": {"tested_on": "intestinal α-glucosidase", "assay": "Inhibition of intestinal α-glucosidase activity of streptozocin-induced diabetic mouse", "format": "biochemical", "conditions": "for Glucose (glucose production from maltose) / Glucose (glucose production from sucrose): diabetic mouse; for Glucose (glucose production from maltose): substrate maltose; for Glucose (glucose production from sucrose): substrate sucrose", "experimental": "as §1\nExample 5 was repeated using intestinal tract enucleated from a diabetic mouse induced by the treatment with streptozocin instead of intestinal tract enucleated from a normal mouse to determine the inhibitory effect of Y-4 on α-glycosidase activity. The intestinal α-glucosidase activity was higher in streptozocin-induced diabetic mouse than in normal mouse. […] The inhibitory effect of Y-4 was more remarkable in the diabetic mouse than in normal mouse."}},
  "data": [
    {"smiles": "[Cl-].[Cl-].[Zn+2]", "note": "[ZnCl2, zinc chloride]", "values": [
      {"measurement": "Inhibition of the enzymatic reaction with other substrates", "setting": "intestinal α-glucosidase [1]; starch, maltose, isomaltose", "result": "not effective"},
      {"measurement": "Glucose (glucose production from isomaltose)", "setting": "intestinal α-glucosidase [1]; inhibitor 5 mM", "result": "6.207 ± 0.230", "unit": "mg/mg protein"},
      {"measurement": "Glucose (glucose production from isomaltose)", "setting": "intestinal α-glucosidase [1]; inhibitor 10 mM", "result": "5.868 ± 0.496", "unit": "mg/mg protein"},
      {"measurement": "Glucose (glucose production from isomaltose)", "setting": "intestinal α-glucosidase [1]; inhibitor 30 mM", "result": "6.510 ± 0.169", "unit": "mg/mg protein"},
      {"measurement": "Glucose (glucose production from isomaltose)", "setting": "intestinal α-glucosidase [1]; inhibitor 50 mM", "result": "5.421 ± 0.339", "unit": "mg/mg protein"},
      {"measurement": "Glucose (glucose production from maltose)", "setting": "intestinal α-glucosidase [1]; inhibitor 5 mM", "result": "19.917 ± 0.932", "unit": "mg/mg protein"},
      {"measurement": "Glucose (glucose production from maltose)", "setting": "intestinal α-glucosidase [1]; inhibitor 10 mM", "result": "18.114 ± 0.145", "unit": "mg/mg protein"},
      {"measurement": "Glucose (glucose production from maltose)", "setting": "intestinal α-glucosidase [1]; inhibitor 30 mM", "result": "15.657 ± 0.036", "unit": "mg/mg protein"},
      {"measurement": "Glucose (glucose production from maltose)", "setting": "intestinal α-glucosidase [1]; inhibitor 50 mM", "result": "10.442 ± 0.290", "unit": "mg/mg protein"},
      {"measurement": "Inhibition of the enzymatic reaction with sucrose", "setting": "intestinal α-glucosidase [1]; substrate sucrose", "result": "as effective as Y-4"},
      {"measurement": "Glucose (glucose production from sucrose)", "setting": "intestinal α-glucosidase [1]; substrate sucrose, inhibitor 5 mM", "result": "3.509 ± 0.254", "unit": "mg/mg protein"},
      {"measurement": "Glucose (glucose production from sucrose)", "setting": "intestinal α-glucosidase [1]; substrate sucrose, inhibitor 10 mM", "result": "1.658 ± 0.078", "unit": "mg/mg protein"},
      {"measurement": "Glucose (glucose production from sucrose)", "setting": "intestinal α-glucosidase [1]; substrate sucrose, inhibitor 30 mM", "result": "0.714 ± 0.097", "unit": "mg/mg protein"},
      {"measurement": "Glucose (glucose production from sucrose)", "setting": "intestinal α-glucosidase [1]; substrate sucrose, inhibitor 50 mM", "result": "0.133 ± 0.024", "unit": "mg/mg protein"},
      {"measurement": "Glucose (glucose production from maltose)", "setting": "intestinal α-glucosidase [2]; inhibitor 5 mM", "result": "28.691 ± 1.222", "unit": "mg/mg protein"},
      {"measurement": "Glucose (glucose production from maltose)", "setting": "intestinal α-glucosidase [2]; inhibitor 10 mM", "result": "20.698 ± 0.442", "unit": "mg/mg protein"},
      {"measurement": "Glucose (glucose production from maltose)", "setting": "intestinal α-glucosidase [2]; inhibitor 30 mM", "result": "21.175 ± 0.105", "unit": "mg/mg protein"},
      {"measurement": "Glucose (glucose production from maltose)", "setting": "intestinal α-glucosidase [2]; inhibitor 50 mM", "result": "21.838 ± 0.652", "unit": "mg/mg protein"},
      {"measurement": "Glucose (glucose production from sucrose)", "setting": "intestinal α-glucosidase [2]; inhibitor 5 mM", "result": "13.346 ± 0.411", "unit": "mg/mg protein"},
      {"measurement": "Glucose (glucose production from sucrose)", "setting": "intestinal α-glucosidase [2]; inhibitor 10 mM", "result": "6.716 ± 0.145", "unit": "mg/mg protein"},
      {"measurement": "Glucose (glucose production from sucrose)", "setting": "intestinal α-glucosidase [2]; inhibitor 30 mM", "result": "5.772 ± 0.121", "unit": "mg/mg protein"},
      {"measurement": "Glucose (glucose production from sucrose)", "setting": "intestinal α-glucosidase [2]; inhibitor 50 mM", "result": "4.973 ± 0.024", "unit": "mg/mg protein"},
      {"measurement": "Inhibition of intestinal α-glucosidase, all substrates", "setting": "intestinal α-glucosidase [2]; streptozocin-induced diabetic mouse", "result": "only weak inhibitory effects"}
    ]}
  ]
}
